Article PMC9569971, “New Oxazolo[5,4-d]pyrimidines as Potential Anticancer Agents: Their Design, Synthesis, and In Vitro Biological Activity Research” (International Journal of Molecular Sciences, 2022)

Test system: Caspase-3
Assay: Human Caspase-3 (Active) ELISA Kit, HT29 lysate
Assay type: cell-based
Conditions: lysate of HT29 cells treated with 3g; SD ±3.03
Method: The test was performed on an HT29 colon adenocarcinoma cell line lysate treated with compound 3g. Cells from the HT29 line were harvested by centrifugation (non-adherent cells) and scraping from the culture flasks (adherent cells), and then the cells were washed twice with cold PBS. The supernatant was removed and discarded, and cell pellets were collected. The cell pellets were then lysed in a cell extraction container for 30 min on ice and […]. The lysate was transferred to microcentrifuge tubes and centrifuged at 13,000 rpm for 10 min at 4 °C. The supernatant was transferred to clean microcentrifuge tubes. Caspase-3 standard (active) was prepared from recombinant protein. The caspase-3 standard was reconstituted with the standard solvent solution at a concentration of 2.5 ng/mL. The contents were swirled and then left for 10 min to ensure complete dissolution. […]
In this method, a monoclonal capture antibody specific to caspase-3 (cleaved) was coated onto the wells of a 96-well plate. […] The absorbance at 450 nm was read for […] after the stop solution was added. […] Concentrations for unknown samples and controls were read from the standard curve. The intensity of the colored product was directly proportional to the concentration of the target protein present in the original specimen, and the optical density was read on a microplate reader. […]

`Cc1noc(N)c1-c1nc2c(NCCCN(C)C)ncnc2o1` [Compound 3g, 2-(5-Amino-3-methylisoxazol-4-yl)-7-N-[3-(N,N-dimethylamino)propyl]aminooxazolo[5,4-d]pyrimidine] was tested, and the Caspase-3 concentration was 12.27 [ng/mL].
